Calls of active or inactive are those of the source. No cut-off for these calls is given here.
Key:
Format in all cases: functional, cell-based
[1] = molecular target: 5-hydroxytryptamine receptor 2B (Homo sapiens) (UniProt P41595); assay: Modulation of 5-HT2B receptor (unknown origin) assessed as modulation of 5-HT induced intracellular Ca2+ release by measuring maximal efficacy at 1 uM preincubated for 15 mins followed by 5-HT addition and measured by FLIPR analysis relative to control; conditions: filed as modulator
Sequence of 5-hydroxytryptamine receptor 2B (Homo sapiens) (P41595 whole entry): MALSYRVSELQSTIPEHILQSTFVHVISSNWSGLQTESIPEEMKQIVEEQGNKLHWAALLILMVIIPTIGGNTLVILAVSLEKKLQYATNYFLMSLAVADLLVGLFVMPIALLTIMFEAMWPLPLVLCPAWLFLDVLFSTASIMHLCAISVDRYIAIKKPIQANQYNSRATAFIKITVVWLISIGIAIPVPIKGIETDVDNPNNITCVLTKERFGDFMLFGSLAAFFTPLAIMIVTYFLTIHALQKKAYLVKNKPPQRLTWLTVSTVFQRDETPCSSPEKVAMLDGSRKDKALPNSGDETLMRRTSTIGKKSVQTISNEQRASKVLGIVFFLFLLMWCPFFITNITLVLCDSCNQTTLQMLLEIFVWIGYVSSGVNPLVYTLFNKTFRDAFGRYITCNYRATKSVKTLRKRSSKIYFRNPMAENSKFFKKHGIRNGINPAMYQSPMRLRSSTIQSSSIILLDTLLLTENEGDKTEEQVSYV

[2] = molecular target: 5-hydroxytryptamine receptor 2A (Homo sapiens) (UniProt P28223); assay: Positive allosteric modulation of human 5-HT2A receptor stably expressed in CHO cells assessed as modulation of 5-HT induced intracellular Ca2+ release by measuring maximal efficacy at 1 uM preincubated for 15 mins followed by 5-HT addition and measured by FLIPR analysis relative to control; conditions: filed as positive allosteric modulator
Sequence of 5-hydroxytryptamine receptor 2A (Homo sapiens) (P28223 whole entry): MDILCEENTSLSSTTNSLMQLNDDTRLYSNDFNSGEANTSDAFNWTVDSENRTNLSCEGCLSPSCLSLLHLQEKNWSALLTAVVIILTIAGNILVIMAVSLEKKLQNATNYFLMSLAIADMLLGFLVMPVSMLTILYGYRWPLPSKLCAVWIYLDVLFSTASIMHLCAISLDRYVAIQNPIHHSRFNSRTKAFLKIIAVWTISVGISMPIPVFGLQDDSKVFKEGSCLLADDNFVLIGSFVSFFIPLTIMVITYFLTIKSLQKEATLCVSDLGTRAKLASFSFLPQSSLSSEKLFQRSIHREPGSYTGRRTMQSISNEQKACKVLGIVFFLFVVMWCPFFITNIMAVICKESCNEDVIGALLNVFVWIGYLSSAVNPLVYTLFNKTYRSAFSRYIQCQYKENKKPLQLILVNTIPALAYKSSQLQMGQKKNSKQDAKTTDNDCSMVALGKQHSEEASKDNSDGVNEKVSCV

[3] = molecular target: T1, 5-hydroxytryptamine receptor 2C (Homo sapiens) (UniProt P28335); assay: Positive allosteric modulation of human 5-HT2C receptor stably expressed in CHO cells assessed as modulation of 5-HT induced intracellular Ca2+ release by measuring maximal efficacy at 1 uM preincubated for 15 mins followed by 5-HT addition and measured by FLIPR analysis relative to control; conditions: filed as positive allosteric modulator
T1 sequence (whole entry): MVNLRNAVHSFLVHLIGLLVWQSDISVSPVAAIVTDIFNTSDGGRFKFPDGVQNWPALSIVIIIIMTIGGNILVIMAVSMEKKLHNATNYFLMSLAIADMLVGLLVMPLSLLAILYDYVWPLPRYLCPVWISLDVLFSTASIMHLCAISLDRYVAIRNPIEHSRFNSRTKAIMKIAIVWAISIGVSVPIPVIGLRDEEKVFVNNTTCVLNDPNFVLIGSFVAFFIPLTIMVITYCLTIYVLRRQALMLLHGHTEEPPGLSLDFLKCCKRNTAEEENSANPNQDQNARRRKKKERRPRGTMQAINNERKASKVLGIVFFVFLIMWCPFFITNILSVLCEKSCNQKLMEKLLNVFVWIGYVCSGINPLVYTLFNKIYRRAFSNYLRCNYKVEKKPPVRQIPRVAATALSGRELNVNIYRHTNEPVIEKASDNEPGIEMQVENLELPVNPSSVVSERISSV

Cortical neurone [4] = assay: Induction of neurite outgrowth in Wistar rat Cortical neurons assessed as increase in neurite number at <=10 pM incubated for 72 hrs by automated imaging based analysis
Cortical neurone [5] = assay: Induction of neurite outgrowth in Wistar rat Cortical neurons assessed as increase in neurite branching at <=10 pM incubated for 72 hrs by automated imaging based analysis
Cortical neurone [6] = assay: Induction of neurite outgrowth in Wistar rat Cortical neurons assessed as increase in neurite length at <=10 pM incubated for 72 hrs by automated imaging based analysis

O=C(CCCc1ccccc1)NC[C@H](O)CO
Emax [1]: 106%
Emax [2]: 97.8%
Emax [3]: 124%

O=C(NC[C@H](O)CO)c1cc(-c2ccccc2)ccn1
Emax [1]: 115%
Emax [2]: 106%
Emax [3]: 120%

COc1cccc2[nH]c3c(c12)C[C@H]1CCCN1CC3
Activity (Cortical neurone [4]): Active
Activity (Cortical neurone [5]): Active
Activity (Cortical neurone [6]): Active

COc1ccc2c3c([nH]c2c1)CCN1CCC[C@@H]1C3
Activity (Cortical neurone [4]): Active
Activity (Cortical neurone [5]): Active
Activity (Cortical neurone [6]): Active

COc1ccc2c3c([nH]c2c1)C[C@H]1CCCN1CC3
Activity (Cortical neurone [4]): Active
Activity (Cortical neurone [5]): Active
Activity (Cortical neurone [6]): Active

CC(Cc1cnc2cc(F)ccn12)N(C)C (stereo not drawn)
Activity (Cortical neurone [4]): inactive
Activity (Cortical neurone [5]): Active
Activity (Cortical neurone [6]): inactive

COc1ccc2c3c([nH]c2c1)C[C@@H]1CCCN1CC3
Activity (Cortical neurone [4]): Active
Activity (Cortical neurone [5]): Active
Activity (Cortical neurone [6]): Active

O=C(NC[C@H](O)CO)[C@@H]1C[C@H](c2ccccc2)CCN1
Emax [1]: 105%

COc1ccn2c(CC(C)N(C)C)ncc2c1 (stereo not drawn)
Activity (Cortical neurone [4]): Active
Activity (Cortical neurone [5]): Active
Activity (Cortical neurone [6]): Active

COc1ccc2c3c([nH]c2c1)CCN1CCC[C@H]1C3
Activity (Cortical neurone [4]): Active
Activity (Cortical neurone [5]): Active
Activity (Cortical neurone [6]): Active
